Assay results reported in patent US20220213126A1, “SMALL MOLECULE AUTOPHAGY INDUCERS FOR THE TREATMENT OF CANCER AND NEURODEGENERATIVE DISEASES” (John Wayne Cancer Institute, priority 2019, published 2022).
In brackets after ≈: the same amount, converted by molar mass. Several values for one entry are separate records, joined by “and”; a condition that tells them apart may be missing. Equal values may be shown once. Read-outs that look alike come from different tables or passages of the source.

How the values were obtained:
[1] = In vivo ADME/plasma pharmacokinetics in male CD1 mice
Description: FIG. 8 is a graph showing plasma pharmacokinetics of VMY-BC-1 in vivo. Concentrations are expressed as the mean±SEM.
In vivo ADME characteristics were determined in male CD1 mice following VMY-BC-1 administration at 1 mg/kg intravenously and 25 mg/kg and 100 mg/kg orally (FIG. 8). […] Sustained oral absorption following the 100 mg/kg oral administration indicated solubility was not limited oral absorption.

[2] = Stability in simulated intestinal fluid; format: physicochemical
[3] = test system: U251; assay: GBM cell viability, Alamar blue, 72 hours; format: cell-based; details: Homo sapiens, U-251, U251, established glioma cell line
Description: (§1) The effect of VMY-BC-1 was tested on a panel of GBM cell lines. […] In this study 100 μM was the highest drug concentration used, with 3-fold dilution for a 10 dose response curve.

[4] = test system: GBM8; assay: GBM cell viability, Alamar blue, 72 hours; format: cell-based; details: GBM8, patient-derived cell line
Description: as §1

[5] = test system: GL261; assay: GBM cell viability, Alamar blue, 72 hours; format: cell-based; details: Mus musculus, GL261, established glioma cell line
Description: as §1

[6] = test system: GBM4; assay: GBM cell viability, Alamar blue, 72 hours; format: cell-based; details: GBM4, patient-derived cell line
Description: as §1

[7] = test system: U87; assay: GBM cell viability, Alamar blue, 72 hours; format: cell-based; details: Homo sapiens, U-87 MG, U87, established glioma cell line
Description: as §1

[8] = Thermodynamic solubility; format: physicochemical; details: pH 7.4, aqueous buffer, thermodynamic from solid
Description: Moreover, PK studies of RSV in humans conclude that even high concentration of RSV might be insufficient to achieve in vivo concentrations required for the systemic prevention of cancer. Therefore, in vitro ADME assays were carried out to assess VMY-BC-1 and to identify properties for further optimization.

[9] = Pharmacokinetics of BC-2 and BC-3 in mouse plasma and brain; format: in vivo, mice; details: mouse, in vivo, po, 5 mg/kg
Description: Pharmacokinetics were assessed in mice administered a single oral dose of 5 mg/kg of the indicated compound (Tables 9 and 10).

[10] = test system: ATM and ULK1; assay: Cell viability assays with siRNA knock down of binding proteins; format: cell-based; details: preliminary
Description: To identify the functional target of VMY-BC-1, preliminary cell viability assays were carried out using siRNA to knock down each of the 10 identified binding proteins. […] Considering that that low ULK1 expression is associated with TNBC disease progression (Tang et al., Breast Cancer Res. Treat. 134:549-560, 2012) and autophagy controls the level of various DNA repair and checkpoint proteins in the DNA damage response pathway (Czarny et al., Int. J. Mol. Sci. 16:2641-2662, 2015; Gomes et al., Int. J. Mol. Sci. 18:2351, 2017), ULK1 activity in response to VMY-BC-1 was investigated. Protein extracts were made from MDA-MB-231 cells treated with vehicle control, VMY-BC-1 (10 μM), and Rapamycin (200 nM) at different time points.

[11] = test system: MDA-MB-231; assay: TMT quantitative proteomics with Ingenuity Pathway Analysis; format: cell-based; details: 10 μM
Description: A global quantitative proteomics approach using multiplexed tandem mass tagged (TMT) isotope labeling technology and shotgun mass spectrometry (Hung et al., Anal. Chem. 84:161-170, 2012) (FIG. 3) was used to quantitate approximately 5,400 proteins. MDA-MB-231 cells were treated with vehicle control (DMSO) or 10 μM VMY-BC-1 for 4 time points. Equal amounts of protein from cell lysates were trypsin digested (Step 1) and labelled with TMT 10-plex reagent (Step 2).

[12] = test system: MDA-MB-231 TNBC cells; assay: Growth of MDA-MB-231 TNBC cells; format: cell-based; details: 1%, 5% or 10% serum
Description: (§2) FIGS. 2A and 2B are graphs showing the effect of VMY-BC-1 on TNBC cells. […] The percentage of cells crossing the chamber is presented as the mean±SEM. *P<0.05.
(§3) Effect of VMY-BC-1 on Triple Negative Breast Cancer Cell Lines A trans-stilbene boronic acid analog, VMY-BC-1, was tested against a TNBC cell line.

[13] = biological target: T1, CYP3A4 (Homo sapiens, UniProt P08684); assay: CYP inhibition in pooled human liver microsomes; format: in vitro ADME
T1 construct: from tissue; host or cells: pooled human liver microsomes

[14] = test system: MDA-MB-231 cells; assay: TNBC cell invasion, Transwells coated with Matrigel; format: cell-based; details: 10 μM, 24-72 hours
Description: as §2, §3

[15] = test system: wild-type C. elegans; assay: C. elegans lifespan; format: in vivo
Description: Synchronized populations of wild-type L1 C. elegans hatched overnight were transferred to agar plates followed by VMY-BC-1 was added freshly from a 5 mM stock to the NGM media. Water was used as control. The L4 population of worms was randomly split to control or treatment groups in a density of about 20-30 worms per 6 cm plate dish.
The first day of adulthood was considered day one. In all the experiments with late-onset administration of VMY-BC-1, synchronized L4 animals were moved to the media supplemented with 5′-fluorodeoxyuridine (FUDR, Cayman chemicals) at a final concentration of 1 μM for 2 days to prevent reproduction, then were moved to FUDR-free NGM plates until the final treatments at day 10. The animals that crawled off the plate, ruptured, or died from internal hatching were censored. Worms were transferred to fresh plates every day after reaching adulthood, and every 2 days after reaching 10 days of age. Prodding test was used to count the number of dead worms. Survival curve was plotted using Prism 7 and the significance of the curves calculated by Log-rank (Mantel-Cox) test.
Synchronized populations of polyQ-expressing C. elegans were grown for 72 hours on media containing 1 μM VMY-BC-1. PolyQ aggegrative vacuoles were detected using confocal microscopy. PolyQ aggregations were decreased compared to vehicle (DMSO) (FIG. 21A). […]

T1 sequence (P08684 2-503): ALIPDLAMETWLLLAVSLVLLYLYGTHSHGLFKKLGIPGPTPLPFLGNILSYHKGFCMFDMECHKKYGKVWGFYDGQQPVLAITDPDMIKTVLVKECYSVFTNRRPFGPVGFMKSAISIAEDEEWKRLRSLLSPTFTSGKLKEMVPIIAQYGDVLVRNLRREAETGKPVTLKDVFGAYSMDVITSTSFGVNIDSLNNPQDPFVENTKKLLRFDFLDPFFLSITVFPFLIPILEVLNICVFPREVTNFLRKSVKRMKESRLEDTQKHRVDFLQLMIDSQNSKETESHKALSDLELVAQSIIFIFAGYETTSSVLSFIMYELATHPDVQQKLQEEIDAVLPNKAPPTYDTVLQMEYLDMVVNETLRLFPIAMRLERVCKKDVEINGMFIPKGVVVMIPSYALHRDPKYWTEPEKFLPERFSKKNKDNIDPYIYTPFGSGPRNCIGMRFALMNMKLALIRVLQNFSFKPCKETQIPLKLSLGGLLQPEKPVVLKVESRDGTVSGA

For `COc1ccc(/C=C/c2cc(OC)cc(B(O)O)c2)cc1` [VMY-BC-1], the Plasma clearance ([1]; 1 mg/kg intravenously) was 50 % of hepatic blood flow, the half-life ([1]; male, CD1, mouse, plasma, iv, 1 mg/kg intravenously, read-out: Elimination half-life (converted)) was roughly 60 min and the Vd ([1]; male, CD1, mouse, plasma, iv, 1 mg/kg intravenously, read-out: Volume of distribution) was 2.4 L/kg. It also gave a bioavailability ([1]; male, CD1, mouse, plasma, 25 mg/kg oral, read-out: Oral suspension bioavailability F (%)) greater than 100%, a Cmax ([1]; male, CD1, mouse, plasma, oral, dose not given, read-out: Mean maximum concentration (Cmax)) of 3060 ng/mL and a Tmax ([1]; male, CD1, mouse, plasma, oral, read-out: Time to maximum concentration (Tmax)) of 60 to 120 min. For the same molecule, the “Increase in Cmax” value ([1]; oral dose 25 to 100 mg/kg) was “approximately 5 fold”, the “Increase in plasma exposures” value ([1]; oral dose 25 to 100 mg/kg) was roughly 7 fold and the “Stability in simulated intestinal fluid” value [2] was 97.24% remaining. The “Stability in simulated intestinal fluid (words)” value [2] was “stable”, the IC50 [3] was 3.98 µM and the IC50 [4] was 9.28 µM. For the same molecule, the IC50 [5] was 4.2 µM, the IC50 [6] was 11 µM and the IC50 [7] was 5.88 µM. For the same molecule, the solubility thermodynamic [8] was 0.31 µM (≈ 0.0881 µg/mL), the AUC(0-inf) [9] was 865 ng·h/mL and the “AUC(inf)” value [9] was 149000 ng·min/mL. The Cmax [9] was 578 ng/mL and 1560 ng/g, the “Concentration in brain vs plasma” value [9] was “higher concentration in brain than in plasma” and the Tmax [9] was 30 min. The concentration at 30 min [9] was 578 ng/mL and 1560 ng/g, the concentration at 60 min [9] was 470 ng/mL and 1400 ng/g and the concentration at 180 min [9] was 60 ng/mL and 169 ng/g. The Tmax ([9]; Tmax) was 30 min, the half-life ([9]; T½) was 44 min and the “Effect of knock down of ATM and ULK1 on functional activity” value [10] was “abrogated the functional activity”. For the same molecule, the “Pathways altered (Ingenuity Pathway Analysis)” value [11] was “activation of apoptosis, autophagy, and DNA damage pathways, and inhibition of mTOR1, PI3K, and AKT pathways”, the “Growth of MDA-MB-231 TNBC cells” value [12] was “significantly inhibited growth” and the IC50 ([13]; read-out: IC50 CYP 3A) was 70 to 100 µM. For the same molecule, the IC50 ([13]; read-out: IC50 inhibition of CYP3A4MD2) was greater than 100 µM, the IC50 ([13]; read-out: IC50 inhibition of CYP3A4TST) was greater than 100 µM and the TNBC cell invasion [14] was “significantly inhibited TNBC cell invasion in a time-dependent manner”. For the same molecule, the “Maximal median lifespan extension” value ([15]; 1 μM) was roughly 25% and the Lifespan ([15]; 0.1 to 10 μM) was “dose-dependent lifespan extension”.
